Laboratory results: US7538084B2, “Cyclosporins” (AMR Technology, Inc., priority 2003, dated 2009)

Key:
murine splenocytes = assay: one-way mixed lymphocyte reaction (MLR) assay, murine; type: cell-based, mouse
Procedure: (§1) The MLR assay was designed to measure ^3H-thymidine uptake by human lymphocytes or murine splenocytes that are undergoing cell proliferation in an immune response to allogeneic stimulation. The murine system uses the H2 disparate inbred mouse strains: Balb/c (H2^d) and C57B1/6 (H2^b).
Initial screens were done at a fixed value of 100 ng/ml test compound.

human T-lymphocytes = details: mixed lymphocyte reaction assay in human T-lymphocytes
From the text: as §1

Substance: Cyclosporin A Methyl Vinyl Ketone (IIIa) [Compound IIIa]
- IC50 (concentration inhibiting proliferation by 50% relative to control) (murine splenocytes; 3H-thymidine uptake, Balb/c responder splenocytes, γ-irradiated C57B1/6 stimulators, 7 point concentration-response curves): 0.31 µg/mL
- immunosuppressive activity (murine splenocytes; mixed lymphocyte reaction assay in murine splenocytes): significant immunosuppressive activity
- immunosuppressive activity (human T-lymphocytes): significant immunosuppressive activity
